The test system of test [1] is moderate traumatic brain injury (TBI) induced by controlled cortical impact (CCI). Description: Right forelimb adhesive removal test after TBI. Type of test: in vivo, male Wistar rats. Here is the method: FIG. 2: The figure illustrates functional tests that are carried out on healthy (sham surgery) no treatment, vehicle treated and ALPHA-1062 treated rats to assess sensorimotor and cognitive function after TBI. Sensimotor function tests. a) The figure depicts tests to assess the modified neurological severity score (mNSS). […] The animal is required to balance over a grid and the frequency of steps missing the grid are counted. This test assesses the functionality of the injured parietal cortex of the rat's brain. c) The adhesive removal test consists of applying adhesive tape on each forepaw of the animal and measuring the time-to-contact and the time-to-remove them. This behavior requires correct paw and mouth sensitivity (time-to-contact) and correct dexterity (time-to-remove). Cognitive function tests: a) This picture illustrates the Morris water maze that comprises that a rat is placed in a large circular pool (picture on the left) and is required to find an invisible platform that allows it to escape the water by using various visuo-spatial cues. This test is used to study spatial learning and memory and assesses hippocampal and select cortical brain region function. Usually, the path of the rat through the pool is tracked (picture on the right) and the time spend in the proximity of the platform as well as the time needed until the platform is found by the rat are measured. b) For the new/novel object recognition (NOR) test, after a habituation time in the test space (picture on far left) rats are given the opportunity to explore two identical objects (A) for a predetermined period of time (picture in the middle). After a delay, the animals are then presented with two objects to explore, one of which is the same as in the first exploration trial (A), the other a new object (B) (picture on the right). Depending on the length of the delay between the two trials or depending on the extend of cortical damage, the rats will either explore the novel object for a greater time period, indicating memory for the familiar object, or will explore the novel and familiar objects for the same amount of time, indicating a lack of recall or loss of memory for the familiar object presented during the initial trial.
Young adult (2-3 months) male Wistar rats were subjected to a moderate traumatic brain injury (TBI) induced by controlled cortical impact (CCI). […]
In the adhesive removal test, an adhesive tape is applied to the right forepaw of an animal. Both the time-to-contact the adhesive (sensory perception), as well as the time-to-remove the adhesive (locomotor skill) are assessed by this test.

Test [2] relates to NeuN and BrdU double positive granule neurons in the dentate gyrus. Briefly: NeuN/BrdU double label, newborn neurons in the dentate gyrus 35 days post-TBI. Type of test: in vivo, male Wistar rats. The settings on record: 4.5 mg/kg IN twice daily, 35 days following TBI. The source says: Young adult (2-3 months) male Wistar rats were subjected to a moderate traumatic brain injury (TBI) induced by controlled cortical impact (CCI). Animal models of TBI including the CCI model and functional tests have been described in detail in peer reviewed publications (Xiong et al., 2013, Nat Rev Neurosci.; Zhang et al., 2016, J Neurosurg.; Zhang et al., 2016, Neurochem Int.; Zhang et al., 2021, J Neurotrauma). Injury consisted of a single impact at 4.0 m/sec, 2.5 mm deformation to the left parietal cortex. In addition, a group of animals was left healthy/not injured to serve as a healthy control.
The substance used in this study was ALPHA-1062 at 4.5 mg/kg. As control treatment (vehicle) purified water was administered intranasally (IN). The ALPHA-1062 and the control treatment were initiated 2 hours after injury and continued twice daily (with a 6-hour interval) for 35 consecutive days. […]
Histological assessment was performed including quantitative image analysis protocols; followed by statistical analysis of the data. […]
For cell counting and quantitation NeuN+ cells were examined in the ipsilateral cortex, DG, CA1, and CA3 regions of the ipsilateral hippocampus. […] The number of BrdU+ cells (red-fluorophore) and NeuN (green-fluorophore)/BrdU-colabeled cells (yellow after merge) were counted. […]

As for `COc1ccc2c3c1O[C@H]1C[C@@H](OC(=O)c4ccccc4)C=C[C@@]31CCN(C)C2` [ALPHA-1062, (4aS,6R,8aS)-5,6,9,10,11,12-hexahydro-3-methoxy-11-methyl-4aH-[1]benzofuro[3a,3,2-ef][2]benzazepin-6-ol benzoate], the “adhesive removal (right forelimb) compared to vehicle” value in test [1] (4.5 mg/kg IN twice daily, from day 7 (D7) on (FIG. 6)) is given as “significantly better”. In addition, the “adhesive removal (right forelimb) compared to uninjured (sham) animals” value in test [1] (4.5 mg/kg IN twice daily, starting on day 7 (D7), remainder of study) was “as well as the uninjured (sham) animals”. Further, the “Adhesive Removal, performance over SHAM” value in test [1] (rats after TBI, compared to healthy sham animals) is “equivalent to”. Further, in test [1] (rats after TBI, compared to vehicle treatment), the “Adhesive Removal, performance over VEHICLE” value is on record as “superior”. In test [2], the “NeuN and BrdU double positive granule neurons compared to both vehicle-treated and sham surgery animals” value was “significantly higher (p<0.05) numbers”.

For the origin of these results see patent US12589099B2 (priority 2021, dated 2026).
